Experimental data from publication PMC8704944, “From Far West to East: Joining the Molecular Architecture of Imidazole-like Ligands in HO-1 Complexes” (Pharmaceuticals, 2021).
Where “and” joins values, the source holds several entries; their conditions need not be identical. Equal entries are not always repeated. Structures can show the parent of a compound that is named as a salt.

Experiments:
HO-1 [1] = target: T1, HO-1 (Rattus norvegicus, UniProt P06762); test: HO-1 enzymatic activity in the microsomal fraction of rat spleen (bilirubin formation); format: biochemical
T1 construct: Rat spleen microsomal fractions were chosen to isolate HO-1 in its most native form; from tissue; host or cells: rat spleen (male Sprague-Dawley), 100,000 g microsomal pellet
T1 sequence (P06762 1-289): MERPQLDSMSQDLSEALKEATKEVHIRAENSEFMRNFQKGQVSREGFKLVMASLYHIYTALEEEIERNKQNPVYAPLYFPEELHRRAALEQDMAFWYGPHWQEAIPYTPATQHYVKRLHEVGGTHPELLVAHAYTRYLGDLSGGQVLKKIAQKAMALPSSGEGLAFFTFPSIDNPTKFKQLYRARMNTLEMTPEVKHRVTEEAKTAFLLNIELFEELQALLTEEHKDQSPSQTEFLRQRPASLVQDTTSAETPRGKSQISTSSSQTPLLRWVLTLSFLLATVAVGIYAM
Method: The inhibitory potency of the novel compounds was evaluated reproducing in vitro the HO-1 catalytic cycle. Rat spleen microsomal fractions were chosen to isolate HO-1 in its most native form; indeed, it is well known that in basal conditions, HO-1 is highly expressed in spleen tissues. […] Among the three catabolites, bilirubin concentrations can easily be monitored spectrophotometrically; the lowest is the absorbance detected with the assay, and the highest is the potency of the putative inhibitor. Results obtained from the in vitro enzymatic assay are reported in Table 1, using Azalanstat as the reference compound.
Rat spleen microsomal fraction obtained by differential centrifugation, according to Ryter et al., was used as source of the HO-1 protein. As reported in the literature, HO-1 is abundant in the rat spleen. We chose this source because it represents the most native (i.e., closest to in vivo) form of HO-1. The experiments reported in the present paper complied with current Italian law and met the guidelines of the Institutional Animal Care and Use Committee of the Ministry of Health (Directorate-General for Animal Health and Veterinary Medicines, Italy) “Dosing of enzymatic activities in rat microsomes” (2018–2022), project code 02769.N.VLY. We used male albino rats of strain Sprague–Dawley (150 g body weight and age 45 d) to obtain spleen microsomal fraction. Rats had free access to water and were kept at room temperature with a natural photoperiod (12 h light–12 h dark cycle). Each rat was sacrificed, and their spleens were pooled and then homogenized in 50 mM Tris buffer, pH 7.4, containing 0.25 M sucrose, using a Potter–Elvehjem homogenizing system with a Teflon pestle. Rat spleen homogenate was centrifuged at 10,000× g for 20 min at 4 °C, and the supernatant was centrifuged at 100,000× g for 60 min at 4 °C. The 100,000 g pellet (microsomes) was resuspended in 100 mM potassium phosphate buffer, pH 7.8, containing MgCl2 2 mM. After measuring its protein concentration, the microsomal fraction was aliquoted and stored at −80 °C for up to 2 months.
Liver tissue was used to obtain biliverdin reductase. Liver tissue was homogenized on ice in 3 volumes of a solution 1.15% KCl w/v and Tris buffer 20 mM, pH 7.8. Rat liver homogenate was centrifuged at 10,000× g for 20 min at 4 °C, and the supernatant was centrifuged at 100,000× g for 1 h at 4 °C. The 100,000 g supernatant was aliquoted and stored at −80 °C after its protein concentration was measured.
Determination of HO-1 activity has been performed by measuring the bilirubin formation using the difference in absorbance at 464–530 nm as described by Ryter et al.. The incubation mixture contained the following in a final volume of 500 µL: 20 mM Tris–HCl, pH 7.4, (1 mg/mL) microsomal extract, 0.5–2 mg/mL biliverdin reductase, 1 mM NADPH, 2 mM glucose 6-phosphate (G6P), 1 U G6P dehydrogenase, 25 µM hemin, and 10 µL of DMSO (or the same volume of DMSO solution of test compounds to a final concentration of 100, 10, and 1 µM). Enzymatic reactions were carried out in the dark for 1 h at 37 °C in a circulating water bath. Then, 500 µL of chloroform was used to stop the reaction. The amount of bilirubin formed was measured in the chloroform phase, with a double-beam spectrophotometer as OD464–530 nm (extinction coefficient, 40 mM/cm for bilirubin). The enzymatic activity was defined as Units (one Unit is the amount of enzyme catalyzing the formation of 1 nmol of bilirubin/mg protein/h).

HO-1 [2] = settings: representative inhibitor, printed in picture of Figure 1; cited from earlier work
HO-2 = settings: representative inhibitor, printed in picture of Figure 1; cited from earlier work
[3] = rat spleen microsomal fraction, mean ± SD of triplicate experiments

Row | melting point | IC50 (HO-1 [1]; [3]) | SMILES | other results
1 | 102 to 103 °C | – | Cc1ccc2c(c1)cc(C(=O)NCCCn1ccnc1)n2C (as salt: hydrochloride) [Compound 4a, N-(3-(1H-Imidazol-1-yl)propyl)-1,5-dimethyl-1H-indole-2-carboxamide] | –
2 | 121 to 122 °C | – | COc1ccc2c(c1)cc(C(=O)NCCCn1ccnc1)n2C (as salt: hydrochloride) [Compound 4b, N-(3-(1H-Imidazol-1-yl)propyl)-5-methoxy-1-methyl-1H-indole-2-carboxamide] | –
3 | 146 to 147 °C | – | COc1cc2cc(C(=O)NCCCn3ccnc3)n(C)c2cc1OC (as salt: hydrochloride) [Compound 4c, N-(3-(1H-Imidazol-1-yl)propyl)-5,6-dimethoxy-1-methyl-1H-indole-2-carboxamide] | –
4 | 174 to 175 °C | – | Cn1c(C(=O)NCCCn2ccnc2)cc2cc(OCc3ccccc3)ccc21 (as salt: hydrochloride) [Compound 4d, N-(3-(1H-Imidazol-1-yl)propyl)-5-(benzyloxy)-1-methyl-1H-indole-2-carboxamide] | –
5 | 204 to 206 °C | 89.6 ± 6.1 µM | O=C(NCCCn1ccnc1)c1cc2cc(OCc3ccccc3)ccc2[nH]1 [Compound 1, N-(3-(1H-Imidazol-1-yl)propyl)-5-(benzyloxy)-1H-indole-2-carboxamide] | –
6 | – | 367 ± 34.5 µM | Cc1ccc2c(c1)cc(C(=O)NCCCn1ccnc1)n2C [Compound 4a, N-(3-(1H-Imidazol-1-yl)propyl)-1,5-dimethyl-1H-indole-2-carboxamide] | –
7 | – | > 100 µM and 113 µM | COc1ccc2c(c1)cc(C(=O)NCCCn1ccnc1)n2C [Compound 4b, N-(3-(1H-Imidazol-1-yl)propyl)-5-methoxy-1-methyl-1H-indole-2-carboxamide] | –
8 | – | 55.5 ± 3.82 µM | COc1cc2cc(C(=O)NCCCn3ccnc3)n(C)c2cc1OC [Compound 4c, N-(3-(1H-Imidazol-1-yl)propyl)-5,6-dimethoxy-1-methyl-1H-indole-2-carboxamide] | –
9 | – | 1.03 ± 0.13 µM | Cn1c(C(=O)NCCCn2ccnc2)cc2cc(OCc3ccccc3)ccc21 [Compound 4d, N-(3-(1H-Imidazol-1-yl)propyl)-5-(benzyloxy)-1-methyl-1H-indole-2-carboxamide] | HO-1 IC50 (HO-1 [1]; [3]): low micromolar range; fold more potent than parent compound 1 (HO-1 IC50) (HO-1 [1]; versus compound 1): 87 fold
10 | – | – | FC(F)(F)c1ccc(SC[C@@H]2CO[C@@](CCc3ccc(Cl)cc3)(Cn3ccnc3)O2)nc1 [QC-80] | IC50 (HO-1 [2]): 2100 nM; IC50 (HO-2): 16 µM

Row | SMILES | melting point | IC50 (HO-1 [1]; [3]) | other results
11 | Cc1ccc2c(c1)cc(C(=O)NCCCn1ccnc1)n2Cc1ccccc1 (as salt: hydrochloride) [Compound 8a, N-(3-(1H-Imidazol-1-yl)propyl)-1-benzyl-5-methyl-1H-indole-2-carboxamide] | 178 to 179 °C | – | –
12 | COc1ccc2c(c1)cc(C(=O)NCCCn1ccnc1)n2Cc1ccccc1 (as salt: hydrochloride) [Compound 8b, N-(3-(1H-Imidazol-1-yl)propyl)-1-benzyl-5-methoxy-1H-indole-2-carboxamide] | 151 to 152 °C | – | –
13 | COc1cc2cc(C(=O)NCCCn3ccnc3)n(Cc3ccccc3)c2cc1OC (as salt: hydrochloride) [Compound 8c, N-(3-(1H-Imidazol-1-yl)propyl)-1-benzyl-5,6-dimethoxy-1H-indole-2-carboxamide] | 110 to 111 °C | – | –
14 | Cc1ccc2c(c1)cc(C(=O)NCCCn1ccnc1)n2Cc1ccccc1 [Compound 8a, N-(3-(1H-Imidazol-1-yl)propyl)-1-benzyl-5-methyl-1H-indole-2-carboxamide] | – | 2060 ± 412 µM | –
15 | COc1ccc2c(c1)cc(C(=O)NCCCn1ccnc1)n2Cc1ccccc1 [Compound 8b, N-(3-(1H-Imidazol-1-yl)propyl)-1-benzyl-5-methoxy-1H-indole-2-carboxamide] | – | > 100 µM and 349 µM | –
16 | COc1cc2cc(C(=O)NCCCn3ccnc3)n(Cc3ccccc3)c2cc1OC [Compound 8c, N-(3-(1H-Imidazol-1-yl)propyl)-1-benzyl-5,6-dimethoxy-1H-indole-2-carboxamide] | – | 81 ± 4.65 µM | –
